Data published in the NIST ThermoML archive (doi:10.1016/j.jct.2012.07.027).
“And” between values parts separate entries of the source, which are not always exact repeats. Equal entries are not always repeated.

What was measured:
[1] = for vapor or sublimation pressure: Closed cell (Static) method; for Normal melting temperature: DTA
[2] = Molar enthalpy of transition or fusion; settings: Crystal; DSC

COC(=O)c1ccc(Br)cc1 [methyl 4-bromobenzoate]
[1]
Settings | vapor or sublimation pressure [kPa]
293.31 K, Crystal | 0.00042
295.32 K, Crystal | 0.00054
297.3 K, Crystal | 0.00068
299.26 K, Crystal | 0.00087
301.24 K, Crystal | 0.00109
303.23 K, Crystal | 0.00139
305.21 K, Crystal | 0.00173
307.22 K, Crystal | 0.0022
309.17 K, Crystal | 0.00277
311.2 K, Crystal | 0.00345
313.13 K, Crystal | 0.00422
315.14 K, Crystal | 0.00523
317.13 K, Crystal | 0.00651
319.04 K, Crystal | 0.00797
321.09 K, Crystal | 0.00985
323.08 K, Crystal | 0.0121
325.13 K, Crystal | 0.01501
327 K, Crystal | 0.01789
329.05 K, Crystal | 0.02213
331.03 K, Crystal | 0.02686
333 K, Crystal | 0.0324
335.03 K, Crystal | 0.03924
336.96 K, Crystal | 0.04713
338.94 K, Crystal | 0.05664
340.91 K, Crystal | 0.0673
342.9 K, Crystal | 0.0811
344.79 K, Crystal | 0.09642
346.85 K, Crystal | 0.1156
348.81 K, Crystal | 0.1363
354.73 K, Liquid | 0.2096
356.68 K, Liquid | 0.233
358.69 K, Liquid | 0.259
360.68 K, Liquid | 0.2932
362.63 K, Liquid | 0.3282
364.63 K, Liquid | 0.365
366.59 K, Liquid | 0.4053
368.56 K, Liquid | 0.4511
370.53 K, Liquid | 0.5029
372.52 K, Liquid | 0.5539
374.48 K, Liquid | 0.6187
376.42 K, Liquid | 0.6825
378.43 K, Liquid | 0.752

Settings | Normal melting temperature [°C]
[1], Crystal | 78.07

Settings | Molar enthalpy of transition or fusion [kcal/mol]
[2] | 6.17

COC(=O)c1ccc(Cl)cc1 [methyl 4-chlorobenzoate]
[1]
Settings | vapor or sublimation pressure [kPa]
276.44 K, Crystal | 0.00043
278.37 K, Crystal | 0.00055
280.36 K, Crystal | 0.00071
282.35 K, Crystal | 0.00092
284.34 K, Crystal | 0.00118
285.3 K, Liquid | 0.00301
286.32 K, Crystal | 0.00148
287.31 K, Liquid | 0.00363
288.29 K, Crystal | 0.00191
289.27 K, Liquid | 0.00436
290.31 K, Crystal | 0.00242
291.28 K, Liquid | 0.0052
292.3 K, Crystal | 0.00308
293.26 K, Liquid | 0.00618
294.26 K, Crystal | 0.00389
295.27 K, Liquid | 0.00739
296.29 K, Crystal | 0.00489
297.26 K, Liquid | 0.00872
298.24 K, Crystal | 0.00611
299.23 K, Liquid | 0.01031
300.23 K, Crystal | 0.00765
301.21 K, Liquid | 0.01212
302.21 K, Crystal | 0.00956
303.18 K, Liquid | 0.01428
304.18 K, Crystal | 0.01181
305.19 K, Liquid | 0.01678
306.12 K, Crystal | 0.01452
307.17 K, Liquid | 0.01959
308.18 K, Crystal | 0.01815
309.12 K, Liquid | 0.02291
310.15 K, Crystal | 0.0222
311.13 K, Liquid | 0.02675
312.09 K, Crystal | 0.02704
313.12 K, Liquid | 0.0311
314.62 K, Liquid | 0.03483
316.12 K, Liquid | 0.03877
318.07 K, Liquid | 0.0448
318.88 K, Liquid | 0.04755
321.14 K, Liquid | 0.05585
322.9 K, Liquid | 0.06343
324.86 K, Liquid | 0.07327
327.05 K, Liquid | 0.084
329.03 K, Liquid | 0.0959
331 K, Liquid | 0.1092
332.98 K, Liquid | 0.125
333.97 K, Liquid | 0.1325

Settings | Normal melting temperature [°C]
[1], Crystal | 41.98

Settings | Molar enthalpy of transition or fusion [kcal/mol]
[2] | 5.09

COC(=O)c1ccc(F)cc1 [methyl p-fluorobenzoate]
[1], Liquid
Settings | vapor or sublimation pressure
268.58 K | 0.00431 kPa
270.54 K | 0.00518 kPa
272.52 K | 0.00628 kPa
274.49 K | 0.00754 kPa
276.46 K | 0.00902 kPa
278.44 K | 0.01071 kPa
280.4 K | 0.01279 kPa
281.87 K | 0.01451 kPa
283.38 K | 0.0165 kPa
285.35 K | 0.0195 kPa
287.34 K | 0.02314 kPa
289.34 K | 0.02719 kPa
291.34 K | 0.0319 kPa
293.24 K | 0.03702 kPa
295.27 K | 0.04353 kPa
297.28 K | 0.05103 kPa
299.22 K | 0.05905 kPa
301.21 K | 0.06815 kPa
303.17 K | 0.07895 kPa
305.16 K | 0.09121 kPa and 0.09107 kPa
307.18 K | 0.1051 kPa
309.2 K | 0.1209 kPa
311.15 K | 0.1388 kPa
313.16 K | 0.1594 kPa
315.12 K | 0.1817 kPa
317.15 K | 0.208 kPa
319.07 K | 0.2349 kPa
321.11 K | 0.2685 kPa
323.09 K | 0.3015 kPa
325.07 K | 0.3433 kPa
327.04 K | 0.3848 kPa
329.03 K | 0.4342 kPa
331 K | 0.4875 kPa
332.99 K | 0.549 kPa
334.97 K | 0.6142 kPa
336.95 K | 0.6904 kPa
338.92 K | 0.7681 kPa
340.9 K | 0.8612 kPa and 0.8627 kPa
342.87 K | 0.9546 kPa
344.85 K | 1.061 kPa

Settings | Normal melting temperature [°C]
[1], Crystal | 0.6

Settings | Molar enthalpy of transition or fusion [kcal/mol]
[2] | 3.68

COC(=O)c1ccc(I)cc1 [methyl p-iodobenzoate]
[1]
Settings | vapor or sublimation pressure [kPa]
313.11 K, Crystal | 0.00044
315.03 K, Crystal | 0.00054
317.12 K, Crystal | 0.00069
319.05 K, Crystal | 0.00087
321.04 K, Crystal | 0.00108
323.04 K, Crystal | 0.00134
325 K, Crystal | 0.00165
326.97 K, Crystal | 0.00206
329 K, Crystal | 0.00253
330.93 K, Crystal | 0.00315
332.89 K, Crystal | 0.00387
334.91 K, Crystal | 0.00478
336.94 K, Crystal | 0.00583
342.8 K, Crystal | 0.01054
346.74 K, Crystal | 0.01524
350.73 K, Crystal | 0.02236
352.75 K, Crystal | 0.02707
356.66 K, Crystal | 0.03886
358.67 K, Crystal | 0.04652
360.6 K, Crystal | 0.05489
362.63 K, Crystal | 0.06557
364.61 K, Crystal | 0.07801
366.58 K, Crystal | 0.09145
368.45 K, Crystal | 0.1085
370.54 K, Crystal | 0.127
372.47 K, Crystal | 0.1479
374.46 K, Crystal | 0.1734
376.44 K, Crystal | 0.2047
378.41 K, Crystal | 0.2394
380.38 K, Crystal | 0.2786
386.32 K, Liquid | 0.4305
388.2 K, Liquid | 0.4717
390.26 K, Liquid | 0.5231
391.24 K, Liquid | 0.5484
392.21 K, Liquid | 0.5758
394.18 K, Liquid | 0.6343
396.15 K, Liquid | 0.698
398.14 K, Liquid | 0.7666
400.1 K, Liquid | 0.8418
402.07 K, Liquid | 0.9228
404.04 K, Liquid | 1.011
406.02 K, Liquid | 1.106

Settings | Normal melting temperature [°C]
[1], Crystal | 113.52

Settings | Molar enthalpy of transition or fusion [kcal/mol]
[2] | 7.1
